Experiments:
[1] = target: DAPK3/ZIP (substrate histone H3 full length) (Homo sapiens, UniProt O43293); assay: Epigenetic enzyme assay, Kinases; format: biochemical; conditions: read-out: % Inhibition of Control Values
[2] = target: SUV39H2 (h) (Homo sapiens, UniProt Q9H5I1); assay: Epigenetic enzyme assay, Methyltransferases (MTs); format: biochemical; conditions: for inhibition at 10 µM: read-out: % Inhibition of Control Values
[3] = target: T1, HDAC6 (h) (Homo sapiens, UniProt Q9UBN7); assay: Epigenetic enzyme assay, Histone deacetylase (HDACs); format: biochemical; conditions: read-out: % Inhibition of Control Values
T1 sequence (Q9UBN7 1-1215): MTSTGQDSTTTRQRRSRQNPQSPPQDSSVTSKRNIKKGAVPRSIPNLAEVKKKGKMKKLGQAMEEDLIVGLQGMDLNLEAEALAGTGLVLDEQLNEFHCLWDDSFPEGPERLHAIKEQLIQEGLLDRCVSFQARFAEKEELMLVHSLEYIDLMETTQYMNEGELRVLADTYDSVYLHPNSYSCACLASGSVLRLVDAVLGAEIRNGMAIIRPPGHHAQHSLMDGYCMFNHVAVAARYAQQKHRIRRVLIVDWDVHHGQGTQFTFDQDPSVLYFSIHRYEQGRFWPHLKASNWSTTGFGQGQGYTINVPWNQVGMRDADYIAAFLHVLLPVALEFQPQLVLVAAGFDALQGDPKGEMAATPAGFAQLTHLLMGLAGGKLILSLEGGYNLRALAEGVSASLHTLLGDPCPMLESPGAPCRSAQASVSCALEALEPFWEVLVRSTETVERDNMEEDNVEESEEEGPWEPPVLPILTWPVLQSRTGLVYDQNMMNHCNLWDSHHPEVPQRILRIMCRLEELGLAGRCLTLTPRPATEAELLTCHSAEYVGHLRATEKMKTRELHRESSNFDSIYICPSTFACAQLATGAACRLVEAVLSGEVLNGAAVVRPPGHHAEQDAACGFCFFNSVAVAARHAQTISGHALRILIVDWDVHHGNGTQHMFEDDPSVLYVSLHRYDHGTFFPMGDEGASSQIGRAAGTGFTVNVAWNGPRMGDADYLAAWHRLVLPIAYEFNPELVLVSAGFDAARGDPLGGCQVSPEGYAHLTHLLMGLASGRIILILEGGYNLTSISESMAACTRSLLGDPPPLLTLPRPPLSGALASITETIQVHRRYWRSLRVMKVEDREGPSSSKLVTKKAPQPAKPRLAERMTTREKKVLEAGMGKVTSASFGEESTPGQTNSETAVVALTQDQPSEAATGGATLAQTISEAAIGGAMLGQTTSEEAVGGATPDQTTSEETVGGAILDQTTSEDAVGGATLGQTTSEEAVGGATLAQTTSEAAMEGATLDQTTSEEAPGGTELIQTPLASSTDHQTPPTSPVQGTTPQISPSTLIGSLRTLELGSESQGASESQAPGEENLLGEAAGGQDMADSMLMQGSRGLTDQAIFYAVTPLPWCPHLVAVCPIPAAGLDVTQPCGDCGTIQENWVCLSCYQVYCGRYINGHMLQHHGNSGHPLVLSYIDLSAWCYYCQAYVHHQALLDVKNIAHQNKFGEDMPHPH

[4] = target: T2, SMARCA4 (h) bromodomain (Homo sapiens, UniProt P51532); assay: Epigenetic binding assay, Bromodomain; conditions: read-out: % Inhibition of Control Specific Binding
T2 construct: Bromodomain

[5] = target: hDNMT3a (Homo sapiens, UniProt Q9Y6K1); assay: Epigenetic enzyme assay, DNA methyltransferases (DNMTs); format: biochemical; conditions: for inhibition at 10 µM: read-out: % Inhibition of Control Values
[6] = target: T3, BRD3(2) (h) bromodomain (Homo sapiens, UniProt Q15059); assay: Epigenetic binding assay, Bromodomain; conditions: 10 μM; read-out: % Inhibition of Control Specific Binding
T3 construct: Bromodomain

[7] = target: JARID1A (h) (Homo sapiens, UniProt P29375); assay: Epigenetic enzyme assay, Demethylases (KDMs); format: biochemical; conditions: for inhibition at 10 µM: read-out: % Inhibition of Control Values
[8] = target: T4, UHRF1 (108-286) (h) (Homo sapiens, UniProt Q96T88); assay: Epigenetic binding assay, PHD domain; conditions: for inhibition at 10 µM: read-out: % Inhibition of Control Specific Binding
T4 construct: Eurofins CEREP (France), contract laboratory
T4 sequence (Q96T88 108-286): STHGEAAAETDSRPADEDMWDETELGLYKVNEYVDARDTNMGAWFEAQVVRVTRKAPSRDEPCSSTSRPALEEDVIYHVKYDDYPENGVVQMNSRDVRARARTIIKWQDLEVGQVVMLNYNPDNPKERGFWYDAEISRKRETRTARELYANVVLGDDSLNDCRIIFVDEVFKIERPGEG

[9] = target: T5, sirtuin 3 (h) (inhibitor effect) (Homo sapiens, UniProt Q9NTG7); assay: Epigenetic enzyme assay, Sirtuins; format: biochemical; conditions: read-out: % Inhibition of Control Values
T5 sequence (Q9NTG7 1-399): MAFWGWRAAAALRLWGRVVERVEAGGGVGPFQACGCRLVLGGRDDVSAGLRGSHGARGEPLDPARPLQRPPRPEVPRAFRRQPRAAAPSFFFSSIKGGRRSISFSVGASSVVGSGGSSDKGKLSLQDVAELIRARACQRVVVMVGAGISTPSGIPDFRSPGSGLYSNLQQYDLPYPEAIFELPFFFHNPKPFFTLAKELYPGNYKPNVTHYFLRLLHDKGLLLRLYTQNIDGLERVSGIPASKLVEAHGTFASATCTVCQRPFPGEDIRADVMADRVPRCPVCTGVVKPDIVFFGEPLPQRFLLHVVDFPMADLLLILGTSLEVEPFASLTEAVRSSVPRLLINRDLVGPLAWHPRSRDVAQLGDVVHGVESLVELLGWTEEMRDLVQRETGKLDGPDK

[10] = target: T6, Chemokine CCR1 (Homo sapiens, UniProt P32246); assay: Chemokine CCR1 radio ligand binding; conditions: assay year 2015, read-out: % Control Response
T6 construct: expressed in transfected cells; host or cells: Chem-2 cells
T6 sequence (P32246 1-355): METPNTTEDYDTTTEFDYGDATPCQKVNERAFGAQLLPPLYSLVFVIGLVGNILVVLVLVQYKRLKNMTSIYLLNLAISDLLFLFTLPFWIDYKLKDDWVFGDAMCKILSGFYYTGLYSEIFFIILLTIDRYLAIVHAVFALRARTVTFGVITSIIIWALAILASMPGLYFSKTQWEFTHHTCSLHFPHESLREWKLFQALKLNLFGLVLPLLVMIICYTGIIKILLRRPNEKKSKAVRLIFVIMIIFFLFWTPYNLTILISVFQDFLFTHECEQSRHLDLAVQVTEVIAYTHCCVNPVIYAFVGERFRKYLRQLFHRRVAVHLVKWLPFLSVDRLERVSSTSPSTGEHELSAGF
Method: The in vitro pharmacological studies were conducted by Eurofins PanLab (Taiwan) using the parameters shown in Table 13 with respect to appropriate literature references.

Sequence of hDNMT3a (Q9Y6K1 whole entry, looked up): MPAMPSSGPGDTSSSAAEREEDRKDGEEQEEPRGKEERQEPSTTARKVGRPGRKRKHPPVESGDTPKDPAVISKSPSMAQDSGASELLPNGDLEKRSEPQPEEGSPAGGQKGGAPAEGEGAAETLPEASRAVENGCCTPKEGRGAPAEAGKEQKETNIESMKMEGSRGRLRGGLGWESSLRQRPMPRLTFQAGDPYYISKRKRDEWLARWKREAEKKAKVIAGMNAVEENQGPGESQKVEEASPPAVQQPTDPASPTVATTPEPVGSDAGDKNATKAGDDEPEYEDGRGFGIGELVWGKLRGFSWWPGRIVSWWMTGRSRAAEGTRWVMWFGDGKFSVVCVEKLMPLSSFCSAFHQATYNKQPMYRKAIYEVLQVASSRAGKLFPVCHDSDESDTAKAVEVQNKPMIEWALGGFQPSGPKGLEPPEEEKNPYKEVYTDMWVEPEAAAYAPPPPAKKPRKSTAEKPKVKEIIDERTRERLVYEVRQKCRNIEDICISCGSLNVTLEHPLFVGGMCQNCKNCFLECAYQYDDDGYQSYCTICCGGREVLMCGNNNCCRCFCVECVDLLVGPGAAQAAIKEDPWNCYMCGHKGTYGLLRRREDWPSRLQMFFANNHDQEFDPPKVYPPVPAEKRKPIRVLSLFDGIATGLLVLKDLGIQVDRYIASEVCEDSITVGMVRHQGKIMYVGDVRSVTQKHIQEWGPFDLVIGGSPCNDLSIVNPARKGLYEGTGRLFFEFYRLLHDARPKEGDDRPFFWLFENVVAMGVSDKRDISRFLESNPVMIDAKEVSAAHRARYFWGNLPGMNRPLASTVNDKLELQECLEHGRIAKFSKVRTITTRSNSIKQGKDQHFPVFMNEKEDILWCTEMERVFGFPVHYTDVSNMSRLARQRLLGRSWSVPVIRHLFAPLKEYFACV
Sequence of JARID1A (h) (P29375 whole entry, the tested form may be a part): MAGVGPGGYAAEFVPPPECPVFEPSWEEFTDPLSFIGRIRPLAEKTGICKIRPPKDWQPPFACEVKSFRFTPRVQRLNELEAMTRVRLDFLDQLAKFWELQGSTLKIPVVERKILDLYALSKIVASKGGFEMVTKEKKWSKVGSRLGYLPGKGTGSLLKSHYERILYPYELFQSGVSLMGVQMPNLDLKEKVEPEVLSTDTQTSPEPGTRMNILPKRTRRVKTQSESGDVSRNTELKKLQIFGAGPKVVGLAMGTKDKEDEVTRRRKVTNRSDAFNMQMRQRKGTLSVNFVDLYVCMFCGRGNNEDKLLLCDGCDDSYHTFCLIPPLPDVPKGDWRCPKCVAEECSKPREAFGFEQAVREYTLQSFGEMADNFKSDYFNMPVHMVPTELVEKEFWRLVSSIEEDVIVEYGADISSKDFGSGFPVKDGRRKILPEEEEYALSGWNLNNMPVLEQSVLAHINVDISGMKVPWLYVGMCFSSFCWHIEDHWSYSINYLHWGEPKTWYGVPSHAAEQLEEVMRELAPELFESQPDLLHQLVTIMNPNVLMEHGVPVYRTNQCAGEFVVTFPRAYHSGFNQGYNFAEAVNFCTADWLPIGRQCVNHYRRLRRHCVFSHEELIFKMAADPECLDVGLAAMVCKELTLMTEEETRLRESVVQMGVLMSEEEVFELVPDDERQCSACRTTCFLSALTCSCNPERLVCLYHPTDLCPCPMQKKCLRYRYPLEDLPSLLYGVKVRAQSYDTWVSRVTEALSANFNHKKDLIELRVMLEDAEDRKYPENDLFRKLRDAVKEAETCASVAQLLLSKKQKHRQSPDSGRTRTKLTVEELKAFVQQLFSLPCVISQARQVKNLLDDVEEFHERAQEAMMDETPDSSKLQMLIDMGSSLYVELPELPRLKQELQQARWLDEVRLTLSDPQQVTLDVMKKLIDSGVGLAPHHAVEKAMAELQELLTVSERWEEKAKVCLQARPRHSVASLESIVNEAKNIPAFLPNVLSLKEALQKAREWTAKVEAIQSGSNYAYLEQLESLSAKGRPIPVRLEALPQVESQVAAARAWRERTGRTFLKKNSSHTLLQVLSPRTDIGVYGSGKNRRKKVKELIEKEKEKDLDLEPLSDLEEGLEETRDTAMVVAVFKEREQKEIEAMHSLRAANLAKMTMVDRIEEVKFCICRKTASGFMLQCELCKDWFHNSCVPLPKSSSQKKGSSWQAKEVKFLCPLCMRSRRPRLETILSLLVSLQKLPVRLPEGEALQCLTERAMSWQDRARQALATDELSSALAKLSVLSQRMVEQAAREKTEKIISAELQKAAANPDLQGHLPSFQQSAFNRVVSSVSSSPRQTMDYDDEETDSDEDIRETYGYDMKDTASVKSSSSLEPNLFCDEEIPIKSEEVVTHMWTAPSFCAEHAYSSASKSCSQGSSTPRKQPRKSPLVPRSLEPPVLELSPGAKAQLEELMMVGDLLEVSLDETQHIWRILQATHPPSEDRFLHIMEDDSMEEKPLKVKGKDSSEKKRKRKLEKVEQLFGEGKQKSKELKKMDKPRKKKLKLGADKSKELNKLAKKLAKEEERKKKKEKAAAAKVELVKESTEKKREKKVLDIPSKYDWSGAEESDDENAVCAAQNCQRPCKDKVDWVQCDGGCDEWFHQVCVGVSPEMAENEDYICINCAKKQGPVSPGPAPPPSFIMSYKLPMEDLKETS
Sequence of DAPK3/ZIP (substrate histone H3 full length) (O43293 whole entry): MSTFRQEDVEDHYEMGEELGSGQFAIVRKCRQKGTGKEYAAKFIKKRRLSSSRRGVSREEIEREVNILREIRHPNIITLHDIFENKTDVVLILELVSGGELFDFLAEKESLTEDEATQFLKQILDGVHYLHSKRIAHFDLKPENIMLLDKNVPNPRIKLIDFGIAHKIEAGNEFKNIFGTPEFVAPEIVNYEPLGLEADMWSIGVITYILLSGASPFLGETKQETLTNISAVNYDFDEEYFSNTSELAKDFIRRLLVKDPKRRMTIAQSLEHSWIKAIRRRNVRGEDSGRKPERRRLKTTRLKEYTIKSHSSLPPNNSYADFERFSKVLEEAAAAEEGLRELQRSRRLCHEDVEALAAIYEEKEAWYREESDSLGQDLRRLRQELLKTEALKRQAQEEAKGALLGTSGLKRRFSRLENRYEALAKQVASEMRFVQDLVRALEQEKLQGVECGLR
T3 sequence (Q15059 306-415 limits assumed): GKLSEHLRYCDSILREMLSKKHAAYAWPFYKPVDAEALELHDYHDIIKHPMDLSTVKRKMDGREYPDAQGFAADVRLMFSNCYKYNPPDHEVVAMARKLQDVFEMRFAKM
T2 sequence (P51532 1453-1564 limits assumed): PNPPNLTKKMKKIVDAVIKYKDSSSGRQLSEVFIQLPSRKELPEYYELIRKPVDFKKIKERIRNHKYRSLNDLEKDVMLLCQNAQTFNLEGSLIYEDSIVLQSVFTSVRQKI
Sequence of SUV39H2 (h) (Q9H5I1 whole entry): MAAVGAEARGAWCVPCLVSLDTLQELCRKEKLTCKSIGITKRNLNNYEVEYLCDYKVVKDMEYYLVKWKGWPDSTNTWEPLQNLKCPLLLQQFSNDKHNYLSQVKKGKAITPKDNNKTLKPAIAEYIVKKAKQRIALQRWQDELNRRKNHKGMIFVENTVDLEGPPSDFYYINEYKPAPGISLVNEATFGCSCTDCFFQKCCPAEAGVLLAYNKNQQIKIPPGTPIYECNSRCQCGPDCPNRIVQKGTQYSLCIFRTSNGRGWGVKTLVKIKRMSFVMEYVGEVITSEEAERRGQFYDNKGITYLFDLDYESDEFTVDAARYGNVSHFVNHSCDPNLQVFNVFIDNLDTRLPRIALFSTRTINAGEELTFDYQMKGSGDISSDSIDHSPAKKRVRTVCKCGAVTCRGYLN

SMILES	inhibition at 10 µM [1]	inhibition at 10 µM [2]	inhibition at 10 µM [3]	inhibition at 10 µM [4]	inhibition at 10 µM [5]	inhibition at 10 µM [6]	inhibition at 10 µM ([7]; 10 μM)	inhibition at 10 µM ([8]; 10 μM)	inhibition at 10 µM [9]	remaining activity at 10 µM [10]	other results
CC(C)=CCC[C@H](CO)[C@@H]1CC[C@@H](C)c2c1cc(C)c(O)c2O [Compound 1, 7,8,18-trihydroxyserrulat-14-ene]	4%	-8%	12%	53%	3%	35%	64%	73%	-14%	33%	% Inhibition of Control Values ([7]; 10 μM): significant inhibitory activity; IC50 ([7]; Table 11, inhibition/concentration-response curve, read-out: IC50): 9.6 µM; % Inhibition of Control Specific Binding ([8]; 10 μM): good inhibitory activity; inhibition of binding, 1st ([8]; 3.0E−05M): 81.5; inhibition of binding, 2nd ([8]; 3.0E−05M): 83.3; inhibition of binding, Mean ([8]; 3.0E−05M): 82.4; inhibition of binding, 1st ([8]; 3.0E−06M): −1.8; inhibition of binding, 2nd ([8]; 3.0E−06M): −0.1; inhibition of binding, Mean ([8]; 3.0E−06M): −0.9; inhibition of binding, 1st ([8]; 3.0E−07M): −12.1; inhibition of binding, 2nd ([8]; 3.0E−07M): −13.2; inhibition of binding, Mean ([8]; 3.0E−07M): −12.7; inhibition of binding, 1st ([8]; 3.0E−08M): −13.3; inhibition of binding, 2nd ([8]; 3.0E−08M): −12.6; inhibition of binding, Mean ([8]; 3.0E−08M): −12.9; inhibition of binding, 1st ([8]; 3.0E−09M): −11.9; inhibition of binding, 2nd ([8]; 3.0E−09M): −13.1; inhibition of binding, Mean ([8]; 3.0E−09M): −12.5; IC50 ([8]; Table 9, inhibition/concentration-response curve): 11 µM
CC(C)=CCC[C@@H]1C(O)Oc2c(C)cc(O)c3c2[C@H]1CC[C@H]3C (stereo partly drawn) [Compound 2, 5,18-epoxyserrulat-14-en-8,18-diol]	9%	-16%	2%	16%	3%	25%	-9%	34%	-8%	-3%	–
CC(C)=CCC[C@@H]1COc2c(C)cc(O)c3c2[C@H]1CC[C@H]3C [Compound 3, 5,18-epoxy-8-hydroxyserrulat-14-ene]	8%	14%	-18%	13%	-31%	1%	3%	29%	-3%	-5%	–
Nc1ncnc2c1ncn2[C@@H]1O[C@H](CSCC[C@H](N)C(=O)O)[C@@H](O)[C@H]1O [SAH]	–	–	–	–	–	–	–	–	–	–	IC50 ([2]; read-out: Reference IC50): 24 µM; IC50 ([5]; read-out: Reference IC50): 0.052 µM

Reference: patent US11331299B2, “Medicinal use of serrulatane diterpenes” (The University of Sydney, priority 2016, dated 2022)
